Assay results as given in US11724992B2 (Novartis AG, priority 2017, dated 2023).

System: IL-1β production in PMA-differentiated THP-1 cells
Experiment: IL-1β production in PMA-differentiated THP-1 cells stimulated with gramicidin (hTHP-1 assay, 2% fetal bovine serum; Procedures 1-3)
Type: cell-based, human
Conditions: hTHP-1 assay containing 2% fetal bovine serum; class symbols; read-out: hTHP-1 IC50 (Average IC50 of compounds in hTHP-1 assay)
Description: The following protocol is suitable for testing the activity of the compounds disclosed herein.
Procedure 1: IL-1β Production in PMA-Differentiated THP-1 Cells Stimulated with Gramicidin
THP-1 cells were purchased from the American Type Culture Collection and sub-cultured according to instructions from the supplier. Cells were cultured in complete RPMI 1640 (containing 10% heat inactivated FBS, penicillin (100 units/ml) and streptomycin (100 μg/ml)), and maintained in log phase prior to experimental setup. Prior to the experiment, compounds were dissolved in dimethyl sulfoxide (DMSO) to generate a 30 mM stock. The compound stock was first pre-diluted in DMSO to 3, 0.34, 0.042 and 0.0083 mM intermediate concentrations and subsequently spotted using Echo550 liquid handler into an empty 384-well assay plate to achieve desired final concentration (e.g. 100, 33, 11, 3.7, 1.2, 0.41, 0.14, 0.046, 0.015, 0.0051, 0.0017 μM). DMSO was backfilled in the plate to achieve a final DMSO assay concentration of 0.37%. The plate was then sealed and stored at room temperature until required.
THP-1 cells were treated with PMA (Phorbol 12-myristate 13-acetate) (20 ng/ml) for 16-18 hours. On the day of the experiment the media was removed and adherent cells were detached with trypsin for 5 minutes. Cells were then harvested, washed with complete RPMI 1640, spun down, and resuspended in RPMI 1640 (containing 2% heat inactivated FBS, penicillin (100 units/ml) and streptomycin (100 μg/ml). The cells were plated in the 384-well assay plate containing the spotted compounds at a density of 50,000 cells/well (final assay volume 50 μl). Cells were incubated with compounds for 1 hour and then stimulated with gramicidin (5 μM) (Enzo) for 2 hours. Plates were then centrifuged at 340 g for 5 min. Cell free supernatant (40 μL) was collected using a 96-channel PlateMaster (Gilson) and the production of IL-1β was evaluated by HTRF (cisbio). The plates were incubated for 18 h at 4° C. and read using the preset HTRF program (donor emission at 620 nm, acceptor emission at 668 nm) of the SpectraMax i3x spectrophotometer (Molecular Devices, software SoftMax 6). A vehicle only control and a dose titration of CRID3 (100-0.0017 μM) were run concurrently with each experiment.
Procedure 2: IL-1β Production in PMA-Differentiated THP-1 Cells Stimulated with Gramicidin
THP-1 cells were purchased from the American Type Culture Collection and sub-cultured according to instructions from the supplier. Prior to experiments, cells were cultured in complete RPMI 1640 (containing 10% heat inactivated FBS, penicillin (100 units/ml) and streptomycin (100 μg/ml)), and maintained in log phase prior to experimental setup. Prior to the experiment THP-1 were treated with PMA (Phorbol 12-myristate 13-acetate) (20 ng/ml) for 16-18 hours. Compounds were dissolved in dimethyl sulfoxide (DMSO) to generate a 30 mM stock. On the day of the experiment the media was removed and adherent cells were detached with trypsin for 5 minutes. Cells were then harvested, washed with complete RPMI 1640, spun down, resuspended in RPMI 1640 (containing 2% heat inactivated FBS, penicillin (100 units/ml) and streptomycin (100 μg/ml). The cells were plated in a 384-well plate at a density of 50,000 cells/well (final assay volume 50 μl). Compounds were first dissolved in assay medium to obtain a 5× top concentration of 500 μM. 10 step dilutions (1:3) were then undertaken in assay medium containing 1.67% DMSO. 5× compound solutions were added to the culture medium to achieve desired final concentration (e.g. 100, 33, 11, 3.7, 1.2, 0.41, 0.14, 0.046, 0.015, 0.0051, […]). Final DMSO concentration was at 0.37%. Cells were incubated with compounds for 1 hour and then stimulated with gramicidin (5 μM) (Enzo) for 2 hours. Plates were then centrifuged at 340 g for 5 min. Cell free supernatant (40 μL) was collected using a 96-channel PlateMaster (Gilson) and the production of IL-1β was evaluated by HTRF (cisbio). […]

SMILES	IC50 [nM]
Cc1oc(S(N)(=O)=NC(=O)Nc2c(C(C)C)cc(F)cc2C(C)C)cc1C(C)(C)O (single isomer, unassigned) [Example 80]	200 to 1000
Cc1sc(S(N)(=O)=NC(=O)Nc2c3c(cc4c2CCC4)CCC3)cc1C(C)(C)O (single isomer, unassigned) [Example 86]	200 to 1000
CC(C)c1cc(C#N)c(F)c(C(C)C)c1NC(=O)N=S(N)(=O)c1cnc(C(C)(C)O)s1 (single isomer, unassigned) [Example 91]	40 to 200
CC(C)c1cc(C#N)c(F)c(C(C)C)c1NC(=O)N=S(N)(=O)c1cnc(C(C)(C)O)s1 (single isomer, unassigned) [Example 92]	1000 to 5000
CC(C)n1ccc(S(N)(=O)=NC(=O)Nc2c3c(cc4c2CCC4)CCC3)n1 (single isomer, unassigned) [Example 94]	1000 to 5000
CC(C)c1cc(OC(F)F)cc(C(C)C)c1NC(=O)N=S(N)(=O)c1sc(C(C)(C)O)cc1F (single isomer, unassigned) [Example 95]	< 8
CC(C)c1cc(OC(F)F)cc(C(C)C)c1NC(=O)N=S(N)(=O)c1sc(C(C)(C)O)cc1F (single isomer, unassigned) [Example 96]	200 to 1000
CCc1cc(OC(F)F)cc(C(C)C)c1NC(=O)N=S(N)(=O)c1cnc(C(C)(C)O)s1 (single isomer, unassigned) [Example 97]	40 to 200
CCc1cc(OC(F)F)cc(C(C)C)c1NC(=O)N=S(N)(=O)c1cnc(C(C)(C)O)s1 (single isomer, unassigned) [Example 98]	5000 to 30000
Cc1cc(C(C)(C)O)ccc1S(N)(=O)=NC(=O)Nc1c2c(cc3c1CCC3)CCC2 (single isomer, unassigned) [Example 100]	5000 to 30000

Now from value to compound:

IC50 [nM]	SMILES
8 to 40	Cc1oc(S(N)(=O)=NC(=O)Nc2c(C(C)C)cc(F)cc2C(C)C)cc1C(C)(C)O (single isomer, unassigned) [Example 79]
8 to 40	Cc1oc(S(N)(=O)=NC(=O)Nc2c(C(C)C)cc(C#N)c(F)c2C(C)C)cc1C(C)(C)O (single isomer, unassigned) [Example 81]
200 to 1000	Cc1oc(S(N)(=O)=NC(=O)Nc2c(C(C)C)cc(C#N)c(F)c2C(C)C)cc1C(C)(C)O (single isomer, unassigned) [Example 82]
8 to 40	Cc1sc(S(N)(=O)=NC(=O)Nc2c3c(cc4c2CCC4)CCC3)cc1C(C)(C)O (single isomer, unassigned) [Example 85]
40 to 200	CC(C)(O)c1ccc(S(N)(=O)=NC(=O)Nc2c3c(cc4c2CCC4)CCC3)c(F)c1 (single isomer, unassigned) [Example 87]
1000 to 5000	CC(C)(O)c1ccc(S(N)(=O)=NC(=O)Nc2c3c(cc4c2CCC4)CCC3)c(F)c1 (single isomer, unassigned) [Example 88]
8 to 40	CC(C)(O)c1csc(S(N)(=O)=NC(=O)Nc2c3c(c(Cl)c4c2CCC4)CCC3)c1 (single isomer, unassigned) [Example 89]
200 to 1000	CC(C)(O)c1csc(S(N)(=O)=NC(=O)Nc2c3c(c(Cl)c4c2CCC4)CCC3)c1 (single isomer, unassigned) [Example 90]
200 to 1000	Cc1cc(C(C)(C)O)ccc1S(N)(=O)=NC(=O)Nc1c2c(cc3c1CCC3)CCC2 (single isomer, unassigned) [Example 99]
40 to 200	CC(C)c1cc(OC(F)F)cc(C2CC2)c1NC(=O)N=S(N)(=O)c1cnc(C(C)(C)O)s1 (single isomer, unassigned) [Example 101]
1000 to 5000	CC(C)c1cc(OC(F)F)cc(C2CC2)c1NC(=O)N=S(N)(=O)c1cnc(C(C)(C)O)s1 (single isomer, unassigned) [Example 102]
40 to 200	CC(C)c1cc(F)cc(C(C)C)c1NC(=O)N=S(N)(=O)c1cnc(C(C)(C)O)s1 (single isomer, unassigned) [Example 103]
1000 to 5000	CC(C)c1cc(F)cc(C(C)C)c1NC(=O)N=S(N)(=O)c1cnc(C(C)(C)O)s1 (single isomer, unassigned) [Example 104]
